Test results: patent US10351553B2, “Potassium channel modulators” (Cadent Therapeutics, Inc., priority 2017, dated 2019)

Key:
hERG = biological target: T1, hERG (Homo sapiens, UniProt Q12809); test: Cardiac potassium channel hERG assay, whole-cell patch clamp in HEK-293 cells; type: cell-based; settings: HEK-293 cells stably transfected with hERG; read-out: hERG inhibition (IC50)
T1 construct: host or cells: HEK-293
Method: Compounds were tested in a cardiac potassium channel hERG assay. hERG is responsible for a rapid delayed rectifier current (IKr) in human ventricles. Inhibition of IKr is the most common cause of cardiac action potential prolongation by non-cardiac drugs. See e.g., Brown, A. M. and Rampe, D. (2000). Drug-induced long QT syndrome: is HERG the root of all evil? Pharmaceutical News 7, 15-20.
HEK-293 cells were stably transfected with hERG cDNA. Stable transfectants were selected by coexpression with the G418-resistance gene incorporated into the expression plasmid. Selection pressure was maintained by including G418 in the culture medium. Cells were cultured in Dulbecco's Modified Eagle Medium/Nutrient Mixture F-12 (D-MEM/F-12) supplemented with 10% fetal bovine serum, 100 U/mL penicillin G sodium, 100 μg/mL streptomycin sulfate and 500 μg/mL G418. Cell culture records are kept on file at Charles River Laboratories. […]
Onset and steady state inhibition of hERG current was measured using a pulse pattern with fixed amplitudes (conditioning prepulse: +20 mV for 2 s; test pulse: −50 mV for 2 s) repeated at 10 s intervals, from a holding potential of −80 mV. Peak tail current was measured during the 2 s step to −50 mV.
One test article concentration was applied to each cell (n=3). Peak current was measured during the test ramp. […] Peak current was measured until a new steady state was achieved.

CYP3A4 = biological target: T2, CYP3A4 (Homo sapiens, UniProt P08684); test: CYP inhibition in human liver microsome, CYP3A4 (Midazolam); type: in vitro ADME
T2 construct: Matrix: Human Liver Microsome (Invitrogen, life technologies); tissue Invitrogen, life technologies; host or cells: human liver microsomes
Method: (§1) Compounds described herein were tested for CYP inhibition across 5 isoforms (3A4, 2D6, 2C9, 2C19 & 1A2). In this assay, CYP isoform specific substrates are incubated with human liver microsome (HLM) in the presence of test compounds, and metabolite formation is determined. Percentage inhibition of metabolite formation at different concentrations of test compound is calculated and IC50 is determined. Conditions used in the assay are summarized below. Results are shown in Table 2. • Test drug (Inhibitor) Concentration: 8 different concentrations (100 μM to 0.005 μM) • Matrix: Human Liver Microsome (Invitrogen, life technologies) • Specific probe substrates will be used for the isoforms as given below: • CYP3A4: Midazolam • CYP2D6: Bufuralol • CYP2C9: Diclofenac • CYP2C19: Mephynitoin • CYP1A2: Phenacetin • Cofactors: NADPH (1 mM final in assay) • Sample Analysis: LC-MS/MS (metabolites) • Specific reference inhibitors included in all assays (Ketoconazole/Quinidine/Sulphaphenazole/Ticlopidine/Furafylline) • Buffer: Potassium Phosphate Buffer (100 mM) pH 7.4 • DMSO level in assay: 0.1% • Data analysis: % Inhibition over control

SK2 channels = biological target: T3, SK2 channels (Homo sapiens, UniProt Q9H2S1); test: Whole-cell patch-clamp of SK2 current in HEK293 cells expressing SK2 channels; type: cell-based; settings: for SK2 potency (SC100): Table 2, concentration that produces doubling of channel current, averages from later experiments
T3 construct: expressed in transfected cells; host or cells: HEK293
Method: The biological activity was determined as follows. The ionic current through small-conductance Ca^2+-activated K^+ channels (SK channels, subtype 2) was measured using the whole-cell configuration of the patch-clamp technique in a patch-clamp set-up using HEK293 tissue culture cells expressing SK2 channels as described in Hougaard et al., British Journal of Pharmacology 151, 655-665, May 8, 2007, the entire teachings of which are incorporated herein by reference. In one aspect, a compound is defined to be an SK Positive Allosteric Modulator (PAM) if the compound increases current in this assay, for example, if the SC100 value of the compound is less than or equal to 10 μM as determined by this assay. The SC100 value is defined to be the concentration of compound that increases the basal current by 100%.

[1] = Oral bioavailability in rat; type: in vivo; settings: male, Sprague Dawley, plasma; 10 mg/kg PO, 0.5 mg/kg IV in rat
From the text: Oral bioavailability data was collected in rat as follows.

[2] = Metabolic stability in liver microsomes, human; type: in vitro ADME; settings: % remaining at 1 hour; 1 μM
Method: Metabolic stability profiling of the compounds was performed in liver microsomes. In this assay, test compound is incubated with liver microsomes in the presence of NADPH for 2 time points at 37° C. At the end of incubation, reaction is quenched with acetonitrile containing internal standard and the parent compound remaining is determined by LC-MS/MS. Conditions used in the assay are summarized below. […], 37° C. • Test concentration: 1 μM in 0.02% DMSO at pH 7.4 (n=2) • NADPH concentration in assay: 1 mM • Liver microsome protein concentration in assay: 0.5 mg/ml • Analysis: LC-MS/MS • Data reported: % Parent Compound Remaining (% PCR) • Reference compounds for high and low clearance are included • Species tested: mouse, rat, dog, monkey, and human

CYP1A2 = biological target: T4, CYP1A2 (Homo sapiens, UniProt P05177); test: CYP inhibition in human liver microsome, CYP1A2 (Phenacetin); type: in vitro ADME
T4 construct: Matrix: Human Liver Microsome (Invitrogen, life technologies); tissue Invitrogen, life technologies; host or cells: human liver microsomes
T4 sequence (P05177 1-516): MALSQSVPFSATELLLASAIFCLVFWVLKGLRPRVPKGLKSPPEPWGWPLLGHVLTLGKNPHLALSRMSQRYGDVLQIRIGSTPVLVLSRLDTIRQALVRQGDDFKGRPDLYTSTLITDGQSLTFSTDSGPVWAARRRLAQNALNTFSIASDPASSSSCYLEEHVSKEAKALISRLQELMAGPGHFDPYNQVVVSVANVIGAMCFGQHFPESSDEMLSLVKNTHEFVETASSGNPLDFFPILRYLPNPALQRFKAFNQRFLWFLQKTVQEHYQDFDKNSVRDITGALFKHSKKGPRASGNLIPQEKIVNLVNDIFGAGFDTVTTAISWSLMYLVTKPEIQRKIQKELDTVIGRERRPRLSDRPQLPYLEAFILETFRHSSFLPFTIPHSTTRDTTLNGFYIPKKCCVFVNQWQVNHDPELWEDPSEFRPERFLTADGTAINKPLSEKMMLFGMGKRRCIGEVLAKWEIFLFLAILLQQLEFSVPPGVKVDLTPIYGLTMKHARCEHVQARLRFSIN
Method: as §1

T2 sequence (P08684 whole entry): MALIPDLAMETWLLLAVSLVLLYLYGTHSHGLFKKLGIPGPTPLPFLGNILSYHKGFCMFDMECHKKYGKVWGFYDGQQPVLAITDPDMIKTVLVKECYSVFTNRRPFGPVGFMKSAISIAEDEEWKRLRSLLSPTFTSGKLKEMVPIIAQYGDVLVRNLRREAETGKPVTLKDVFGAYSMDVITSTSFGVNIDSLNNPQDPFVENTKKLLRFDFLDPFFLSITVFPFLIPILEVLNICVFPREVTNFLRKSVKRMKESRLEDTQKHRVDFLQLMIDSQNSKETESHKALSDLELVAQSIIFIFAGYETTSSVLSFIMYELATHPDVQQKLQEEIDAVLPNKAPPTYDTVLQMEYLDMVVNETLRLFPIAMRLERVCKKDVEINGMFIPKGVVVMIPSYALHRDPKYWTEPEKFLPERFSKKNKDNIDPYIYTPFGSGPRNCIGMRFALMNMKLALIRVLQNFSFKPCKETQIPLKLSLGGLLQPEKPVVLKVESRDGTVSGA
T1 sequence (Q12809 whole entry): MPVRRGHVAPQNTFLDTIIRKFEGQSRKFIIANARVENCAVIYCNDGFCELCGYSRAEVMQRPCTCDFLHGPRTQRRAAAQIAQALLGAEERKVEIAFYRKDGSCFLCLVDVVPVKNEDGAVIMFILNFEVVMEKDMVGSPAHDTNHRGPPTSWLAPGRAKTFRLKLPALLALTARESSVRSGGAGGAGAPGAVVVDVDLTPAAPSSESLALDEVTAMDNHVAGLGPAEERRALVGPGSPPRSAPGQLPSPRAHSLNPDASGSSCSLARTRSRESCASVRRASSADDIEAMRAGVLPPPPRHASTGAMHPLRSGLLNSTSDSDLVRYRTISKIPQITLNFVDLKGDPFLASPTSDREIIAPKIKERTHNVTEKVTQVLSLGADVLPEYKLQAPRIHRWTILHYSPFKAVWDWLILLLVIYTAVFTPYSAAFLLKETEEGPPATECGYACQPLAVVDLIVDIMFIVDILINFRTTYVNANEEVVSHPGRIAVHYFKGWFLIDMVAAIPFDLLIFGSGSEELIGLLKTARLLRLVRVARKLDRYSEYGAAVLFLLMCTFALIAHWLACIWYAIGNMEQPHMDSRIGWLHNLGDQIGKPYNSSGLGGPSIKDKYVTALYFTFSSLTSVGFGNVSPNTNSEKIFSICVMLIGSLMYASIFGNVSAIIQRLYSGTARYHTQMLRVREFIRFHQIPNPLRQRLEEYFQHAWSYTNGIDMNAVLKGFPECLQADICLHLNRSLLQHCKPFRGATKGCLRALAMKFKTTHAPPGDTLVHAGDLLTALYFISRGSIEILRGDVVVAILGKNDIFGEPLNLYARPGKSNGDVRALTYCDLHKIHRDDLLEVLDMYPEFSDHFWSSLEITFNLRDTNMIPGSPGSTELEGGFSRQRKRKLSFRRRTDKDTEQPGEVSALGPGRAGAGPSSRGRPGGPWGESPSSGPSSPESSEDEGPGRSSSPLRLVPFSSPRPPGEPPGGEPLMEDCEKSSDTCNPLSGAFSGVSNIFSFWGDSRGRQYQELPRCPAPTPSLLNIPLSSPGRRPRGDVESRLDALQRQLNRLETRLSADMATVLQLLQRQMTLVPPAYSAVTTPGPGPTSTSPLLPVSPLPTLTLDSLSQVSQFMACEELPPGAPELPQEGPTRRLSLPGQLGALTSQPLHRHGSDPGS

Structure (SMILES)	IC50 (hERG)	IC50 (CYP3A4)	SK2 potency (SC100) (SK2 channels)	bioavailability [1]	Liver microsome stability, Human [2]	IC50 (CYP1A2)	Measured SK2 SC100 (SK2 channels; Table 1, concentration that increases the basal current by 100%)
Cc1cc(NC2CCCCC2)nc(-n2nc(C)cc2C)n1 [Comparator A, reference compound]	> 10 µM	> 10 µM	1.38 µM	5%	50%	0.64 µM	–
Cc1ccn(-c2nc(NC3CCC(F)(F)CC3)cc(N3CCOCC3)n2)n1 [Compound 1, N-(4,4-difluorocyclohexyl)-2-(3-methyl-1H-pyrazol-1-yl)-6-morpholinopyrimidin-4-amine]	> 10 µM	> 10 µM	0.4 µM	81%	84%	> 10 µM	0.5 µM
